Read-outs that look alike come from different tables or passages of the source.
Assays:
[1] = test system: vaginal hyperalgesia; assay: Rat dyspareunia model (visceromotor response to vaginal distension); type: in vivo, female Sprague Dawley rats
From the text: The visceromotor response (VMR) to vaginal distension was used in conscious animals as an objective measure of vaginal sensitivity. […] To measure VMR response, 2 Teflon-coated wire electrodes were sutured in the external oblique abdominal muscle, and tunneled subcutaneously to be exteriorized at the base of the neck for future access. On the day of VMR assessment, a lubricated small balloon (1 cm length) was inserted into the mid-vaginal canal. The balloon catheter was secured to the base of the tail and connected to a volume controller/timing device (infusion pump) for balloon distension. The vaginal balloon was inflated to ramp intensities of distension (0.05 ml increments every 20 sec.) to a maximal volume of 0.8 ml. The electrodes were connected to an amplifier (Animal Bio Amp, ADInstrunnents), and the abdominal electromyographic signal was recorded using a data acquisition system (PowerLab, ADInstrunnents) for off-line analysis using LabChart version 7. The number of abdominal muscle contractions was counted manually for each 0.1 ml distension step, as an index of vaginal pain. […] All data were expressed as mean±standard deviation (s.d.), for the number (n) of measured rats per group. […] Planned comparison of means (matched-volume versus vehicle) was performed using a Bonferroni post hoc test, provided that a main effect was detected. […]

[2] = In vitro metabolic stability in liver microsomes (calculation of CL and Fmax); type: in vitro ADME, human; details: 1 μM, 0.5 mg/mL protein, maximal oral bioavailability calculated from half-life
Experimental: In Vitro Metabolic Stability Assays Determination of in vitro metabolic stability in microsomes (including calculation of hepatic in vivo blood clearance (CL) and of maximal oral bioavailability (Fmax))
The metabolic assay was started shortly afterwards by adding the test compound to the incubation at a final volume of 1 mL. Organic solvent in the incubations was limited to […] dimethylsulfoxide (DMSO) and ≤1% acetonitrile. […] Samples were frozen at −20° C. overnight, subsequently centrifuged for 15 minutes at 3000 rpm and the supernatant was analyzed with an Agilent 1200 HPLC-system with LCMS/MS detection.
The half-life of a test compound was determined from the concentration-time plot. From the half-life (kel: slope of concentration-time plot; half-life=ln 2/kel) the intrinsic clearances were calculated. Together with the additional parameters liver blood flow, specific liver weight and microsomal protein content the hepatic in vivo blood clearance (CL) and the maximal oral bioavailability (Fmax) were calculated for the different species.
(§1) Metabolic instability is often the main clearance mechanism of xenobiotica leading to a high CL and low bioavailability which may eventually result in a short half-life and a low exposure after oral administration. Thus, reducing the susceptibility of metabolic degradation usually leads to a more favourable pharmacokinetic profile. When using liver microsomes as incubation matrix main phase I metabolic reactions, typically oxidoreductive reactions by cytochrome P450 enzymes and flavin mono-oxygenases (FMO) and hydrolytic reactions by esterases/amidases/epoxidhydrolases, are described. When the incubation of the test compound is performed in a hepatocyte matrix all potential hepatic metabolic processes (phase I and phase II) are covered.

[3] = test system: CFA-induced mechanical hyperalgesia; assay: Rat CFA in vivo model (mechanical hyperalgesia, paw withdrawal threshold); parameters: species or system Male Sprague Dawley rats; details: 3 mg/kg p.o., dosed 24 hours after CFA injection
Experimental: Rat CFA In Vivo Model Male Sprague Dawley rats were used. Mechanical hyperalgesia was induced by injecting 25 μl of Complete Freund's Adjuvant (CFA) into the plantar surface of one hind paw. Mechanical hyperalgesia was measured using the Pressure Application Measurement apparatus (Ugo Basile, Gemonio, Italy). Briefly, a linearly increasing pressure was applied to an area of ˜50 mm2 of the plantar side of the hind paw until a behavioural response (paw withdrawal) was observed or until the pressure reached 1000 gf. The pressure at which the behavioural response occurred was recorded as the “Paw Withdrawal Threshold” (PWT). Both CFA-injected and contralateral PWTs were determined for each rat, in each treatment group and at each time point of the studies. […] Compounds were dosed 24 hours after CFA injection. Data were expressed as the mean PWT for each treatment group and at each time point. Data were analysed by performing a repeated measures two way ANOVA (time×treatment). Planned comparison of means (each versus vehicle) was performed by using a Dunnett's post hoc test, provided that a main effect was detected. […] More preferred examples of the present invention show rat CFA in vivo efficacy in the ‘Paw withdrawal threshold 6 hours post drug’ measure when dosed at 3 mg/kg p.o.

[4] = In vivo pharmacokinetics in dogs; details: Beagle, plasma, dog
[5] = Human liver cytosol stability assay; type: in vitro ADME; details: human liver cytosol 1 mg/mL, 1 or 10 μM, 37° C.
Experimental: Human Liver Cytosol Stability Assay
Method description: Human liver cytosol (pooled, >30 male and female donors) was incubated with individual test compounds in order to compare the extent of depletion of test compound and formation of the respective oxidised metabolite. […] An incubation volume of 1000 μL was used. The test compound was added from a stock solution in acetonitrile at 1 or 10 μM concentration in the incubation. Incubations were performed at 37° C. Reactions were stopped at 0 h and 4 h after incubation by addition of 100 μL acetonitrile to 250 μL of incubation mixture. Precipitated proteins were removed by centrifugation at approximately 3000 rpm. The supernatants were stored at approximately −20° C. until they were analysed. […]
Data analysis: The depletion of the test compound and formation of the corresponding metabolites were determined by decrease or increase of the corresponding peak area in the chromatogram after UV detection at approximately 300 nm 4 h after incubation compared to that at 0 h after incubation. […]

[6] = test system: CFA-induced mechanical hyperalgesia; assay: Mouse CFA in vivo model (von Frey filaments); parameters: species or system Female C57BL/6 mice; details: 25 mg/kg p.o. b.i.d., 72 hrs after CFA-injection
Experimental: Mouse CFA In Vivo Model […] Mechanical hyperalgesia was measured using von Frey filaments. Briefly, von Frey filaments were being used to stimulate the animal's hindpaw and a behavioural response was measured depending on the strength of the von Frey filament used. The strength of the filament was expressed in [g] and the threshold was recorded when a response of the animal was observed. Both CFA-injected and contralateral response thresholds were determined for each mouse and in each treatment group 72 hrs after CFA-injection. Compound application was done p.o. b.i.d., starting one hour before CFA injection. Data were expressed as the mean threshold for each treatment group. Data were analysed by performing a one way ANOVA over the different dose groups. Planned comparison of means (each versus vehicle) was performed by using a Dunnett's post hoc test, provided that a main effect was detected.

[7] = test system: rat hepatocytes; assay: In vitro metabolic stability in rat hepatocytes; type: in vitro ADME, Han Wistar rats; details: 1 μM, 1.0×10^6 cells/mL, maximal oral bioavailability calculated from half-life
Experimental: Determination of in vitro metabolic stability in rat hepatocytes (including calculation of hepatic in vivo blood clearance (CL))
Hepatocytes from Han Wistar rats were isolated via a 2-step perfusion method. After perfusion, the liver was carefully removed from the rat: the liver capsule was opened and the hepatocytes were gently shaken out into a Petri dish with ice-cold Williams' medium E (WME). The resulting cell suspension was filtered through sterile gaze in 50 mL falcon tubes and centrifuged at 50×g for 3 min at room temperature. The cell pellet was resuspended in 30 mL WME and centrifuged through a Percoll® gradient for 2 times at 100×g. The hepatocytes were washed again with WME and resuspended in medium containing 5% FCS. Cell viability was determined by trypan blue exclusion.
The test compound was added to a final concentration of 1 μM. […] Samples were frozen at −20° C. overnight, subsequently centrifuged for 15 minutes at 3000 rpm and the supernatant was analyzed with an Agilent 1200 HPLC-system with LCMS/MS detection.
The half-life of a test compound was determined from the concentration-time plot. From the half-life (kel: slope of concentration-time plot; half-life=ln 2/kel) the intrinsic clearances were calculated. Together with the additional parameters liver blood flow, amount of liver cells in vivo and in vitro.
as §1

Human liver microsome Fmax [2]: 57%
half-life ([4]; iv, 0.5 mg/kg i.v., read-out: Dog t½ i.v. (converted)): 8.8 h
bioavailability ([4]; oral, 1 mg/kg p.o., 0.5 mg/kg i.v., read-out: Dog Bioavailability (BA)): 70%
half-life ([4]; po, 1 mg/kg p.o., read-out: Dog t½ p.o. (converted)): 12 h
Test compound turnover after 4 h [5]: 12%
Rat hepatocyte Fmax [7]: 52%
SMILES: Cc1cnc(-c2cc(O[C@@H]3CCOC3)cc(C(=O)N[C@H](C)c3cnc(C(F)(F)F)nc3)c2)s1 [Example 11, 3-(5-Methyl-1,3-thiazol-2-yl)-5-[(3R)-tetrahydrofuran-3-yloxy]-N-{(1R)-1-[2-(trifluoromethyl)pyrimidin-5-yl]ethyl}benzamide]
vaginal hyperalgesia compared to vehicle-treated animals ([1]; 15 mg/kg oral b.i.d. during 2 weeks): decreased vaginal hyperalgesia
AUC of cumulative number of abdominal contractions against vaginal distension volume ([1]; 15 mg/kg oral b.i.d. for 2 weeks, 6 weeks post-implantation (off-drug), mean ± s.d.): 1.64 ± 1.53 (17)
Paw withdrawal threshold 6 hour-post drug [3]: 639 ± 48 gf (*)
Efficacy mouse CFA model (von Frey response threshold) [6]: 0.682 g ± 0.122 (*)

Reference: US10174016B2 (BAYER AKTIENGESELLSCHAFT, priority 2014, dated 2019)
